For three sequences, IC50 results are on record in patent US20260217863A1, “ANTIBODY OR PEPTIDE BINDING SPECIFICALLY TO RNASE A, IMMUNOASSAY DEVICE AND METHOD FOR DETECTING RNASE A, AND METHOD FOR COLLECTING RNASE A” (UIF (University Industry Foundation), Yonsei University, priority 2022, published 2026).

By IC50 is commonly meant the concentration that inhibits the measured activity by half. A low value points to greater potency in that assay.

The test concerns the target T1, RNase A (Bos taurus, UniProt P61823).
T1 sequence (P61823 27-150): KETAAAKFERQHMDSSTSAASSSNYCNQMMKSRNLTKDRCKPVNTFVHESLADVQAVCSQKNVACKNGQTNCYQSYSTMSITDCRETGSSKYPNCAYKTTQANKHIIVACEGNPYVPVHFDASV
As to the kind of experiment: cCMP hydrolysis assay of RNase A inhibition (absorbance 286 nm). Particulars: inhibitor 0.1 nM to 1 μM, linear regression. In kind it is biochemical, bovine. Also on record: Ribonuclease A (Type II-A) from bovine pancreas; purchased Sigma-Aldrich Korea; host or cells: bovine pancreas. The protocol: The analysis of RNase A activity inhibition based on 2′,3′-cyclic CMP (cCMP) was performed by measuring the absorbance of cCMP at a wavelength of 286 nm. A mixture was prepared by combining Tris-acetate buffer (500 mM, pH=6.5, 200 μL), EDTA (5 mM, 200 μL), 2′,3′-cCMP (10 mM, 100 μL), RNase A (10 μg/mL, 100 μL), Fv variant (or synthetic peptides in the concentration range of 0.1 nM-1 μM), and DW (filled up to 1000 μL). The absorbance at 286 nm was measured using a Lamda35 UV-VIS spectrophotometer (Perkin-Elmer, MA, USA). The reaction was initiated by adding RNase A to the mixture, and the absorbance was measured every 3 minutes for a total of 30 minutes.
RNase A is known to degrade RNA by cleaving the phosphodiester bonds between nucleotides. The cleavage of the phosphodiester bonds occurs through a two-step reaction: (1) the formation of a […] and (2) the subsequent degradation of a 2′,3′-cyclic phosphate intermediate. […] Specifically, it was utilized that the absorbance at 286 nm quantitatively increases as 3′-CMP increases due to the hydrolysis of cCMP, as shown in FIG. 13. […] The inhibition curves of the Fv antibodies were plotted linearly, and the IC50 values were calculated by linear regression, as shown in FIG. 15. […]
The analysis of RNase A activity inhibition based on 2′,3′-cyclic CMP (cCMP) was performed by measuring the absorbance of cCMP at a wavelength of 286 nm. […] The absorbance at 286 nm was measured using a Lamda35 UV-VIS spectrophotometer (Perkin-Elmer, MA, USA). The reaction was initiated by adding RNase A to the mixture, and the absorbance was measured every 3 minutes for a total of 30 minutes.
RNase A is known to degrade RNA by cleaving the phosphodiester bonds between nucleotides. […] Specifically, it was utilized that the absorbance at 286 nm quantitatively increases as 3′-CMP increases due to the hydrolysis of cCMP, as shown in FIG. 13. […] The inhibition curves of the Fv antibodies were plotted linearly, and the IC50 values were calculated by linear regression, as shown in FIG. 15.

Where no end group is shown, it is not given here.

For CGPDSDVMTDF [Peptide-1], half-maximal inhibition (IC50) required 607 nM.

DGTAKKSRKDD [Peptide-3]: the IC50 came out at 356 nM. YGPVGRVKRDD [Peptide-2] yielded a concentration for half-maximal inhibition (IC50) of 373 nM.
